According to patent US10329304B2, “Compounds and methods for inhibition of hedgehog signaling and phosphodiesterase” (Vanderbilt University, priority 2014, dated 2019):
Entries after “also recorded” stand apart in the source; their conditions may differ. Read-outs that look alike come from different tables or passages of the source.

Assays:
[1] = test system: Ptch1 transcription; test: Sufu−/− mouse embryonic fibroblasts qRT-PCR; format: cell-based; details: for inhibition at 10 µM: Mus musculus, Fibroblast, read-out: Sufu Null (Ptc) % Inh., 10 μM
Source text: (§1) In light of EGM1's ability to halt Hh transcriptional activity at a node downstream of the negative regulator Sufu, and thus also downstream of Smo, we sought to confirm mode of action retention with our most promising analogs. Therefore, we employed Sufu−/− mouse embryonic fibroblasts (MEF) that display constitutively active transcription of Hh target genes Gli1 and Ptch1 and monitored the ability of our optimized analogs to repress signaling via quantitative reverse transcription-PCR (qRT-PCR). […] We then evaluated improved analogs from multiple structural classes including those from Table 1 with cyclohexylthiophene cores as well as from Table 13 with structurally distinct core modifications.
(§2) Sufu^−/− cells were seeded into 12-well plates at a density of 100,000 cells/well in D10 FBS and incubated for 24 hours. Small molecule solutions were prepared by adding the desired amount of compound from 10 mM DMSO stock to D0.5 FBS. Negative control was prepared by adding an equi-volume amount of DMSO to D0.5 FBS as compared to small molecule treated conditions. Cell plating medium was aspirated and replaced with 1 mL of prepared small molecule-containing media, and plates were incubated for 24 hours before proceeding to RNA isolation.
(§3) Cells were washed 1× with 1× phosphate-buffered saline (PBS) then RNA was isolated using the Qiagen RNeasy Mini Kit (Qiagen, Germantown, Md., USA) according to the manufacturer's protocol, eluting RNA from the spin column with 30 μL of RNase-free water. RNA was placed on ice and immediately subjected to reverse transcription. Remaining RNA was stored at −80° C.
(§4) Reverse transcription polymerase chain reaction (RT-PCR) was performed with the Applied Biosystems High Capacity cDNA Reverse Transcription Kit (ThermoFisher Scientific, Waltham, Mass., USA) using an Eppendorf MasterCycler. Each 20 μL reaction contained 0.5 μg of total RNA, 2 μL of 10×RT Buffer, 0.8 μL of 25×dNTP Mix (100 mM), 2 μL of 10×RT Random Primers, 1 μL of MultiScribe® Reverse Transcriptase (50 U/μL), 1 μL of Recombinant RNasin® Ribonuclease Inhibitor (40 U/μL) (Promega, Madison, Wis., USA), and nuclease-free water. Reverse transcription was performed with the following program: 25° C. for 10 minutes, 37° C. for 120 minutes, and 85° C. for 5 minutes. The cDNA was subjected to quantitative real-time PCR (Q-PCR) or stored at −20° C.
(§5) Quantitative real-time PCR was performed on an Applied Biosystems 7900 HT Fast Real Time PCR System in 384-well format. Each cDNA sample was assayed in triplicate with both probe of interest and control probe. Master mixes for each probe were prepared corresponding to 10 μL of Applied Biosystems TaqMan Universal PCR Master Mix (ThermoFisher Scientific, Waltham, Mass., USA), 1 μL of primer, and nuclease-free water corresponding to a volume providing 20 μL reactions when loading an average of 50 ng of cDNA. Quantitative real-time PCR was run with the following thermal cycling protocol: 50° C. for 2 min., 95° C. for 10 min., and 40 cycles of 95° C. for 15 seconds, 60° C. for 1 min., then fluorescence reading. The following FAM probes were purchased from Life Technologies (Carlsbad, Calif., USA): mouse GAPDH, Mm99999915_g1; mouse Gli1, Mm00494646_g1; mouse Ptch1, Mm01306905_m1.
(§6) Quantitative real-time PCR data for Hh signaling inhibition was quantitated using the ΔΔCt method. Control probe values were subtracted from probe of interest values to arrive at the ΔCt value. The ΔCt value was transformed by 2-^ΔCt to arrive at the ΔΔCt value. All ΔΔCt values were divided by the average negative control ΔΔCt value to provide percent Hh signaling activity. Percent inhibition values were derived by calculating the inverse of percent activity. Data is reported as mean±standard error of the mean (SEM), representing at least two biological replicates, each quantitated in triplicate.

[2] = test system: Gli1 transcription; test: Sufu−/− mouse embryonic fibroblasts qRT-PCR; format: cell-based; details: for Transcriptional inhibition in the Sufu−/− cell line, in words: Gli1 and Ptch1
Source text: as §1, §2, §3, §4, §5, §6

[3] = test system: Hedgehog signaling (TM3-Gli-Luc); test: TM3-Gli-Luc luciferase reporter assay stimulated with 20 nM SAG; format: cell-based
Summary of the method: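 TM3-Gli-Luc cells on 0.1% gelatin in DMEM/F12 with 2.5% FBS, treated 48 h with compound plus 20 nM SAG. Steady-Glo luminescence normalized to CellTiter-Glo viability, DMSO-only (no SAG) background subtracted, percent of SAG control. EC50 averaged from ≥2 independent days ±SEM.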

[4] = Lipophilic efficiency (LipE = pEC50 − cLogP) and cLogP
Description: Therefore, we prioritized phenotypic analog evaluation in the Gli-responsive luciferase reporter line TM3-Gli-Luc stimulated with 20 nM Smo agonist (SAG) while concurrently monitoring non-specific cellular toxicity. Additionally, lipophilic efficiency (LipE), a concurrent readout of a compound's potency (pEC50) and lipophilicity (cLogP) derived by subtracting the latter from the former, was utilized to optimize solubility properties (Table 12B), allowing for straightforward tracking of compounds with improvements in both parameters.

[5] = test system: zebrafish embryos; test: Zebrafish embryo phenotypic assay (ZF); format: in vivo; details: wild-type embryonic zebrafish, dosed 5 hpf
Summary of the method: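 Wild-type AB zebrafish embryos (~10) in E3 egg water dosed at 5 hours post-fertilization from 1 mM or 10 mM DMSO stock. Scored for gross morphological changes at 24, 48 and 72 hpf. Screening run used 5 μM final, added ~4 hpf, incubated at 28.5 °C.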

[6] = target: T1, Smo cyclopamine (Cyc) binding site (Homo sapiens, UniProt Q99835); test: BODIPY-cyclopamine competition in HEK-293T cells overexpressing Smo
T1 construct: expressed in transfected cells; host or cells: HEK-293T
Description: Thus, HEK-293T cells overexpressing Smo were concurrently treated with 5 nM BODIPY-Cyc and molecules of interest.

[7] = test system: Gli1 mRNA; test: Hh % Inh.: SAG-induced Gli1 expression in C3H10T½ cells (qPCR); format: cell-based; details: Mus musculus, C3H 10T1/2, SAG-induced (100 nM), 24 hours; for inhibition at 1 µM: 1 pM [sic], read-out: C3H10T1/2 qPCR, Gh1 mRNA % Inh., 1 pM; for inhibition at 10 µM: 10 pM [sic], read-out: C3H10T1/2 qPCR, Gh1 mRNA % Inh., 10 pM; for EC50: read-out: C3H10T1/2 qPCR, Gh1 mRNA EC50
Description: Compounds are dosed from 10 mM DMSO stock solutions, and mRNA is isolated after 24 hours of compound treatment. mRNA is reverse transcribed to produce cDNA which is quantified by quantitative polymerase chain reaction (qPCR) in triplicate and levels are normalized to GAPDH levels. Data is presented as percent inhibition compared to positive control (SAG).

[8] = test system: PKA activation; test: Immunostaining of autophosphorylated PKA catalytic subunit in NIH3T3 cells; format: cell-based; details: SAG-stimulated NIH3T3 cells, Egm 5 μM, Rolipram 10 μM
Description: NIH3T3 cells were plated on Poly-D-Lysine-coated glass coverslips and were cultured at 37° C., 5% CO2 in DMEM medium containing 10% fetal bovine serum until reaching 75% confluency. For one set of experiments, cells were then transfected with VSV-tagged PDE4D3 plasmid (gift from Miles Houslay, University of Glasgow, Scotland, UK) using Fugene6 transfection reagent (Roche, Indianapolis, Ind.) per manufacturer's protocol. Afterward, cell medium was replaced with DMEM/0.5% FBS containing either 5 μM eggmanone or DMSO and incubated overnight at 37° C., 5% CO2. Cells were fixed in 4% PFA at room temperature for 10 minutes prior to permeabilization, blocking, and staining with primary antibodies against Arl13b (gift of Tamary Caspary, Emory University, Atlanta, Ga.) and VSV (AbCam, Cambridge, Mass.). Fluorescent immunocytochemistry was performed using species-specific, secondary antibodies (Jackson Immunoresearch, West Grove, Pa.). For additional immunocytochemistry experiment, cells were treated with 20 nM SAG in the presence or absence of 5 uM Eggmanone. After overnight incubation, cells were washed with PBS, fixed for 10 minutes in 4% PFA, permeabilized 20 minutes at −20C with cold methanol, blocked with PBS/1% BSA, and incubated with primary antibodies to phospho-PKA catalytic domain Thr197 (Cell Signaling, Danvers, Mass.) and then to Arl13b. An additional overnight blocking step using unconjugated rabbit IgG was required between primary antibody incubations since both antibodies were produced in rabbit. Fluorescent conjugated secondary antibodies were used for visualization. Data analysis was performed in part through the use of the VUMC Cell Imaging Shared Resource.
Using ImageJ software (National Institutes of Health, developed by W. Rasband), a region of interest was created using the magic wand tool on Arl13b channel and transposed to the Gli2 channel, and integrated density was measured and reported as arbitrary units (a.u.). For phospho-PKA, using ImageJ, a line selection tool was used to select a line projected through the length of the primary cilia and an equal length beyond. The intensity values were potted and the cumulative florescence (area under the curve) was calculated for three cilia, blindly, for each treatment. These values for cilia and pericilia domain were analyzed by a two tailed students t-test. For correlation analysis, correlation coefficient for intensity of gamma-tubulin and phosphor-PKA were calculated and compared among treatments with students t-test.

[9] = 20 nM SAG, mean ± standard error of the mean, read-out: TM3-Gli-Luc EC50
[10] = TM3-Gli-Luc reporter line stimulated with 20 nM SAG, mean ± SEM, Table 14, read-out: TM3-Gli-Luc EC50
[11] = Calculated as pEC50 - cLogP, Molinspiration Cheminformatics
[12] = Table 9A, read-out: TM3 G8 Luciferase EC 50

T1 sequence (Q99835 28-787): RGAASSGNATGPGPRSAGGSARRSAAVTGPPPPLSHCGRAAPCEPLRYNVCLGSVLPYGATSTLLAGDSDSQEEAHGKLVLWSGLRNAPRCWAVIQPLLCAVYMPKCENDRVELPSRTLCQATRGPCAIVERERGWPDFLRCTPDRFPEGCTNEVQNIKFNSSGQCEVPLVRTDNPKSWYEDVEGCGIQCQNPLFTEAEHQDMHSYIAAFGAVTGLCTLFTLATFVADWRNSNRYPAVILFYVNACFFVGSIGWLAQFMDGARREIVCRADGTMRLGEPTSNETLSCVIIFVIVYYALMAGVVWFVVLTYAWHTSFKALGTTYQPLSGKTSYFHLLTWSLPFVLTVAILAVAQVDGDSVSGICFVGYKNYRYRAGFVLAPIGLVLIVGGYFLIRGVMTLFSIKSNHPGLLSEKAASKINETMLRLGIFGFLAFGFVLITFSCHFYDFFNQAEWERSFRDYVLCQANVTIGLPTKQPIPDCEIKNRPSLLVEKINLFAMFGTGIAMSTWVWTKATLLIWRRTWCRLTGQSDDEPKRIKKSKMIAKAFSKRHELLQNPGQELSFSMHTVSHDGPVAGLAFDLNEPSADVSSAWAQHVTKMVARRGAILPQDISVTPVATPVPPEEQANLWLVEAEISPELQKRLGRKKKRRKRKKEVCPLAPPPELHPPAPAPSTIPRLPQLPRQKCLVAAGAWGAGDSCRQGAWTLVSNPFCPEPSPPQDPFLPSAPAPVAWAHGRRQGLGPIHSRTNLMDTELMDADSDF

SMILES	inhibition at 10 µM [1]	EC50 [3, 12]	inhibition at 1 µM [7]	inhibition at 10 µM [7]	EC50 [7]	further results
Cc1c(C(=O)Nc2ccc(N3C[C@@H](C)O[C@@H](C)C3)nc2)cccc1-c1ccc(OC(F)(F)F)cc1 [Sonidegib, reference compound]	–	–	–	–	–	inhibition of Ptch1 transcription ([1]; 0.1 μM): failed to inhibit transcription; inhibition of Gli1 transcription ([2]; 0.1 μM): failed to inhibit transcription; Hh inhibitory activity / potency in words ([3]; 20 nM SAG): displayed expected potency; Hh inhibitory activity / potency in words ([3]; 20 nM SAG, listed as 2): low-nanomolar; EC50 [3, 9]: 1.2 ± 0.2 nM; EC50 [3, 10]: 1.2 ± 0.2 nM; LipE [4, 11]: 3.02; LipE ([4]; pEC50 - cLogP, Table 14): 3.02
O=C(CSc1nc2sc3c(c2c(=O)n1C1CC1)CCCC3)c1ccccc1 [JEH-1-163-1]	41.9%	1960 nM	–	–	–	ZF Phenotype EC100 [5]: 0.81 µM
O=C(CSc1nc2sccc2c(=O)n1C1CC1)c1cccs1 [Formula 19b]	–	–	–	–	–	Transcriptional inhibition in the Sufu−/− cell line, in words [2]: lack of Sufu−/− transcriptional inhibition; Displacement of BODIPY-cyclopamine (5 nM) from Smo ([6]; KAAD-Cyc 200 nM, analogs at 10- to 20-fold their EC50s): do not displace the binding of BODIPY-cyclopamine; also recorded: failed to compete for the Smo binding site; EC50 ([3]; TM3-Gli-Luc reporter line stimulated with 20 nM SAG, mean ± SEM, Table 13, read-out: TM3-Gli-Luc EC50): 933 ± 100 nM; EC50 [3, 10]: 933 ± 100 nM; LipE ([4]; calculated as pEC50 - cLogP (Molinspiration Cheminformatics), Table 13): 2.89; LipE ([4]; pEC50 - cLogP, Table 14): 2.89
C=C(C)Cn1c(SCC(=O)N2CCCCC2C)nc2sc3c(c2c1=O)CCCC3 (stereo not drawn) [JEH-3-069-2]	77.6%	2500 nM	38.6%	97.6%	2740 nM	–
CCn1c(SCC(=O)c2cccs2)nc2sc3c(c2c1=O)CCCC3 [JEH-3-087-1]	21.6%	12000 nM	39.5%	96.1%	1370 nM	–
C=C(C)Cn1c(SCC(=O)N2CCCCC2)nc2sc3c(c2c1=O)CCCC3 [JEH-3-048-3]	-13.7%	6310 nM	33.8%	98.6%	–	–
CCCC(=O)Nc1ncnc2c1ncn2[C@@H]1O[C@@H]2COP(=O)(O)O[C@H]2[C@H]1OC(=O)CCC [dibutyril cAMP (DBA), dibutyril cAMP, reference compound]	–	–	–	–	–	PKA activation (phospho-PKA-C staining), spatial distribution [8]: induce spatially localized PKA activation in the basal body; PKA activation (phospho-PKA-C staining), spatial distribution ([8]; listed as dibutyril cAMP): more diffuse increase in phospho-PKA staining
CCCn1c(SCC(=O)c2cccs2)nc2sc3c(c2c1=O)CCCC3 [JEH-3-087-2]	12.1%	1580 nM	64.2%	101%	789 nM	–
C=C(C)Cn1c(SCC(=O)c2cccn2C)nc2sc3c(c2c1=O)CCCC3 [JEH-3-077]	52.1%	–	47.1%	89.1%	1130 nM	–
CC1=C2C[C@H]3[C@@H](CC=C4CC(=O)CC[C@@]43C)[C@@H]2CC[C@]12O[C@@H]1C[C@H](C)CN(CCNC(=O)CCCCCNC(=O)CCc3ccccc3)[C@H]1[C@H]2C [KAAD-Cyc, KAAD-cyclopamine, reference compound]	–	–	–	–	–	Displacement of BODIPY-cyclopamine (5 nM) from Smo [6]: completely displaced BODIPY-Cyc
O=C(CSc1nc2sc3c(c2c(=O)n1C1CC1)CCCC3)c1cccs1 [Formula 9b]	–	–	–	–	–	Transcriptional inhibition in the Sufu−/− cell line, in words [2]: general ability to inhibit transcriptional activity; EC50 [3, 9]: 1890 ± 750 nM; EC50 [3, 10]: 1890 ± 750 nM; LipE [4, 11]: 1.40; LipE ([4]; pEC50 - cLogP, Table 14): 1.40
